# Results reported in US20250360167A1 (Keryx Biopharmaceuticals, Inc., priority 2013, published 2025).
# Columns and labels:
# [1] = tested on: Product Of Calcium And Phosphorus; assay: Phase 3 trial (Example 1): phosphorus times calcium product; format: in vivo, human
# Method: Serum phosphorus and calcium were performed at Screening (Visit 0); weekly during the Washout Period after Visit 1 (Week −2); at Visit 4 (Randomization Visit); at Visits 5 (Week 1), 6 (Week 2), 7 (Week 4), 8 (Week 6), 9 (Week 8), 10 (Week 10), 11 (Week 12), 12 (Week 16), 13 (Week 20), 14 (Week 24), 15 (Week 28), 16 (Week 32), 17 (Week 36), 18 (Week 40), 19 (Week 44), 20 (Week 48), and 21 (Week 52) of the 52-week Safety Assessment Period; and at Visits 22 (Week 53), 23 (Week 54), 24 (Week 55) and 25 (Week 56) of the Efficacy Assessment Period.
# These variables will be analyzed using LOCF methodology. ANCOVA will be employed. The model will include treatment (fixed effect), and Visit-4 baseline (covariate). An analysis using MMRM method will be conducted as a sensitivity analysis. The least square mean estimates of the treatment effects as well as the 2-sided 95% confidence intervals (CI) of the treatment effects will be derived.
# (§1) • 1. Change in serum calcium concentration at Weeks 12, 24, 36, 48, and 52 as compared to baseline (Visit 4). This variable will be analyzed using LOCF methodology. ANCOVA will be employed. The model will include treatment (fixed effect), and baseline (covariate). • 2. Change in ferritin, and TSAT at Weeks 12, 24, 36 and 48 as compared to baseline (Visit 4). This variable will be analyzed using LOCF methodology. ANCOVA will be employed. The model will include treatment (fixed effect), and baseline (covariate). • 3. Change in serum iron and TIBC at Weeks 12, 24, 36, 48, and 52 as compared to baseline (Visit 4). This variable will be analyzed using LOCF methodology. ANCOVA will be employed. The model will include treatment (fixed effect), and baseline (covariate). • 4. Change in Ca x P product at Weeks 12, 24, 36, 48, and 52 as compared to baseline (Visit 4). This variable will be analyzed using LOCF methodology. ANCOVA will be employed. The model will include treatment (fixed effect), and baseline (covariate). • 5. Change in iPTH at Weeks 12, 36, 52, and 56 as compared to baseline (Visit 4). This variable will be analyzed using LOCF methodology. ANCOVA will be employed. The model will include treatment (fixed effect), and baseline (covariate). • 6. Change in serum […], vitamin A, vitamin B-12, vitamin E, vitamin K and folic acid at Weeks 12, 36, and 52 as compared to baseline (Visit 4). This variable will be analyzed using LOCF methodology. ANCOVA will be employed. The model will include treatment (fixed effect), and baseline (covariate). • 7. Change in serum bicarbonate concentration at Weeks 12, 36, and 52 as compared to baseline (Visit 4). This variable will be analyzed using LOCF methodology. ANCOVA will be employed. The model will include treatment (fixed effect), and baseline (covariate). • 8. Change in IV iron intake at Weeks 12, 24, 36, 48, and 52 as compared to baseline (Visit 4). This variable will be analyzed using LOCF methodology. ANCOVA will be employed. The model will include treatment (fixed effect), and baseline (covariate). • 9. Change in the use of EPO (ESA) administered at Weeks 12, 24, 36, 48, and 52 as compared to baseline (Visit 4). This variable will be analyzed using LOCF methodology. ANCOVA will be employed. The model will include treatment (fixed effect), and baseline (covariate). • 10. Change in the use of Vitamin D supplementation (and its analogs) and Sensipar (cinacalcet) at Weeks 12, 24, 36, 48, and 52 as compared to baseline (Visit 4). This variable will be analyzed using LOCF methodology. ANCOVA will be employed. The model will include treatment (fixed effect), and baseline (covariate). • 11. Change in LDL, HDL, and triglycerides at Weeks 12, 36, and 52 as compared to baseline (Visit 4). This variable will be analyzed using LOCF methodology. ANCOVA will be employed. The model will include treatment (fixed effect), and baseline (covariate).
# [2] = tested on: transferrin saturation (TSAT); assay: Phase 3 trial (Example 1): TSAT; format: in vivo, human; parameters: TSAT, Mean / TSAT, Median / TSAT, Change from Baseline, Mean / TSAT, Change from Baseline, Median / TSAT, LS Mean / TSAT, Treatment Differences, LS Mean (KRX-0502) − LS Mean (control): unit not given here; details: for TSAT, Mean / TSAT, Median / TSAT, LS Mean / TSAT, Change from Baseline, Mean / TSAT, Change from Baseline, Median / TSAT, Treatment Differences, LS Mean (KRX-0502) − LS Mean (control): Table 16
# Excerpt: Iron studies including serum iron, ferritin, TSAT, and total iron-binding capacity were done at Screening (Visit 0); at the Randomization Visit (Visit 4); at Visits 7 (Week 4), 9 (Week 8), 11 (Week 12), 12 (Week 16), 13 (Week 20), 14 (Week 24), 15 (Week 28), 16 (Week 32), 17 (Week 36), 18 (Week 40), 19 (Week 44), 20 (Week 48), and 21 (Week 52) of the 52-week Safety Assessment Period; and at Visit 25 (Week 56) of the Efficacy Assessment Period.
# Change from baseline in TSAT at Week 52 as compared to baseline (Visit 4). This variable will be analyzed using LOCF methodology. ANCOVA will be employed. The model will include treatment (fixed effect), and baseline (covariate). A sensitivity analysis will be performed using MMRM method.
# as §1
# [3] = Day 0 Baseline, Safety Assessment Period
substance,measurement,setting,value
"iron (+3), x (1, 2, 3-propanetricarboxylic acid, 2-hydroxy-), y (H2O) [KRX-0502]","Product Of Calcium And Phosphorus, Mean","[1]; Baseline, Table 12",65.4075
same,"Product Of Calcium And Phosphorus, Median","[1]; Baseline, Table 12",62.7000
same,"Product Of Calcium And Phosphorus, Week 12 Change from Baseline, Mean",[1]; Table 12,−16.5635
same,"Product Of Calcium And Phosphorus, Week 12 Change from Baseline, Median",[1]; Table 12,−16.7400
same,"Product Of Calcium And Phosphorus, LS Mean","[1]; Week 12, ANCOVA, Table 12",48.97
same,"Product Of Calcium And Phosphorus, Mean","[1]; Week 12, Table 12",48.8440
same,"Product Of Calcium And Phosphorus, Median","[1]; Week 12, Table 12",47.5000
same,"Product Of Calcium And Phosphorus, Treatment Differences, LS Mean (KRX-0502) − LS Mean (Control)","[1]; Week 12, control = sevelamer carbonate as a single agent",1.45
same,"Mean TSAT, LS Mean Difference from Active Control Group at Week 52","[2]; ANCOVA, Table D",10%
same,Mean TSAT,"[2]; Baseline (Day 0), Table D",31%
same,"TSAT, Mean",[2]; [3],31.0
same,"TSAT, Median",[2]; [3],29.5
same,"TSAT, LS Mean","[2]; Week 12, ANCOVA",40.17
same,Mean TSAT,"[2]; Week 12, LOCF, Table D",40%
same,"TSAT, Change from Baseline, Mean",[2]; Week 12,9.2
same,"TSAT, Change from Baseline, Median",[2]; Week 12,7.0
same,"TSAT, Mean",[2]; Week 12,40.2
same,"TSAT, Median",[2]; Week 12,37.0
same,"TSAT, Treatment Differences, LS Mean (KRX-0502) − LS Mean (control)",[2]; Week 12,8.74
same,"TSAT, LS Mean","[2]; Week 24, ANCOVA",39.90
same,Mean TSAT,"[2]; Week 24, LOCF, Table D",40%
same,"TSAT, Change from Baseline, Mean",[2]; Week 24,8.9
same,"TSAT, Change from Baseline, Median",[2]; Week 24,7.0
same,"TSAT, Mean",[2]; Week 24,39.9
same,"TSAT, Median",[2]; Week 24,38.0
same,"TSAT, Treatment Differences, LS Mean (KRX-0502) − LS Mean (control)",[2]; Week 24,8.28
same,"TSAT, LS Mean","[2]; Week 36, ANCOVA",39.80
same,Mean TSAT,"[2]; Week 36, LOCF, Table D",40%
same,"TSAT, Change from Baseline, Mean",[2]; Week 36,8.8
same,"TSAT, Change from Baseline, Median",[2]; Week 36,7.0
same,"TSAT, Mean",[2]; Week 36,39.8
same,"TSAT, Median",[2]; Week 36,37.0
same,"TSAT, Treatment Differences, LS Mean (KRX-0502) − LS Mean (control)",[2]; Week 36,9.44
same,"TSAT, LS Mean","[2]; Week 48, ANCOVA",40.60
same,Mean TSAT,"[2]; Week 48, LOCF, Table D",41%
same,"TSAT, Change from Baseline, Mean",[2]; Week 48,9.6
same,"TSAT, Change from Baseline, Median",[2]; Week 48,7.0
same,"TSAT, Mean",[2]; Week 48,40.6
same,"TSAT, Median",[2]; Week 48,38.0
same,"TSAT, Treatment Differences, LS Mean (KRX-0502) − LS Mean (control)",[2]; Week 48,11.17
same,"TSAT, LS Mean","[2]; Week 52, ANCOVA",39.35
same,Mean TSAT,"[2]; Week 52, LOCF, Table D",39%
same,"TSAT, Change from Baseline, Mean",[2]; Week 52,8.3
same,"TSAT, Change from Baseline, Median",[2]; Week 52,6.0
same,"TSAT, Mean",[2]; Week 52,39.4
same,"TSAT, Median",[2]; Week 52,35.0
same,"TSAT, Treatment Differences, LS Mean (KRX-0502) − LS Mean (control)",[2]; Week 52,9.66
same,"Mean TSAT, % Change from Baseline","[2]; Week 52, relative change, Table D",25.8%
same,"Mean TSAT, Change from Baseline at Week 52","[2]; absolute TSAT points, Table D",8%
